Source: PubChem BioAssay (NCI)
Values joined by “and” are separate entries in the source; they are usually repeats but may differ in a detail not shown here. Equal entries are not always repeated.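 Following 48 hours of exposure in 96-well plates, responses at five concentrations were used to interpolate endpoints linearly. GI50 is the concentration that inhibits growth by half. At the TGI there is no net growth.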

Key:
Experiment in all cases: NCI anticancer screen, dose series, 48 h
MDA-MB-231 breast = system: MDA-MB-231 breast
RPMI-8226 leukemia = system: RPMI-8226 leukemia
U251 CNS = system: U251 CNS
ACHN renal = system: ACHN renal
DU-145 prostate = system: DU-145 prostate
EKVX NSCLC = system: EKVX NSCLC
SW-620 colon = system: SW-620 colon
NCI/ADR-RES ovarian = system: NCI/ADR-RES ovarian
SK-MEL-28 melanoma = system: SK-MEL-28 melanoma
SK-MEL-5 melanoma = system: SK-MEL-5 melanoma

| SMILES | GI50 (MDA-MB-231 breast) | TGI (MDA-MB-231 breast) | GI50 (RPMI-8226 leukemia) | TGI (RPMI-8226 leukemia) | GI50 (U251 CNS) | TGI (U251 CNS) | GI50 (ACHN renal) | TGI (ACHN renal) | GI50 (DU-145 prostate) | TGI (DU-145 prostate) | GI50 (EKVX NSCLC) | TGI (EKVX NSCLC) | GI50 (SW-620 colon) | TGI (SW-620 colon) | GI50 (NCI/ADR-RES ovarian) | TGI (NCI/ADR-RES ovarian) | GI50 (SK-MEL-28 melanoma) | TGI (SK-MEL-28 melanoma) | GI50 (SK-MEL-5 melanoma) | TGI (SK-MEL-5 melanoma) |
| --- | --- | --- | --- | --- | --- | --- | --- | --- | --- | --- | --- | --- | --- | --- | --- | --- | --- | --- | --- | --- |
| COC(=O)CCC1CCC(c2cc(F)ccc2F)(S(=O)(=O)c2ccc(Cl)cc2)CC1 (centres undefined) | > 100 µM | > 100 µM | 41.9 µM | > 100 µM | > 100 µM | > 100 µM | > 100 µM | > 100 µM | > 100 µM | > 100 µM | 61.2 µM | > 100 µM | > 100 µM | > 100 µM | > 100 µM | > 100 µM | > 100 µM | > 100 µM | 28.4 µM | > 100 µM |
| O=S(=O)(c1cccc2c(Cl)cccc12)N1CCCNCC1 | 5.49 µM | 19.3 µM | 13.9 µM | 32.7 µM | 14.6 µM | 27.7 µM | 14.4 µM | 27.4 µM | 17.1 µM | 32.1 µM | 19.9 µM | 35.9 µM | 17.9 µM | 31.8 µM | 13.7 µM | 26.6 µM | 10.8 µM | 22.7 µM | 13.6 µM | 26.5 µM |
| Oc1[nH]c2c(Br)cccc2c1C1=Nc2ccccc2/C1=N/OCCN1CCCC1 | 1.31 µM and 1.21 µM | 4.95 µM and 7.97 µM | 1.35 µM and 1.59 µM | – | 1.09 µM | 2.77 µM | 0.414 µM and 0.379 µM | 2.12 µM and 3.8 µM | 0.688 µM | 4.31 µM | 1.31 µM and 2.09 µM | > 100 µM | 1.49 µM and 0.542 µM | – | 0.793 µM and 0.766 µM | – | 1.92 µM | 5.49 µM | 1.06 µM and 0.751 µM | – |
| CCCCCCCCCCCCOC1C(C(COC2OC(C3COC(C)(C)O3)C3OC(C)(C)OC23)NC(=O)NS(=O)(=O)c2ccccc2)OC2OC(C)(C)OC21 (centres undefined) | 9.94 µM | 24.3 µM | 1.95 µM | 6.77 µM | 3.14 µM | 9.77 µM | 4.22 µM | 15.2 µM | 2.74 µM | 8.39 µM | 3.89 µM | 16.8 µM | 5.14 µM | 18.5 µM | 7.18 µM | 23.6 µM | 9.61 µM | 28 µM | 2.51 µM | 6.34 µM |
| Cc1cc(NCc2cc(Nc3ccnc4cc(Cl)ccc34)ccc2F)nc(N2CCN(C)CC2)n1 | 1.64 µM | 3.74 µM | 1.32 µM | 3.65 µM | 1.78 µM | 4.46 µM | 2.16 µM | 5.38 µM | 2.63 µM | 11.4 µM | 2.91 µM | 12.6 µM | 1.63 µM | 4.23 µM | 2.36 µM | 7.72 µM | 1.7 µM | 3.26 µM | 1.69 µM | 3.07 µM |
| CN(C)CC1C(=O)O[C@H]2[C@H]1CC/C(COC(=O)c1cc3ccccc3[nH]1)=C\CC[C@@]1(C)O[C@@H]21 (some centres undefined) | 2 µM | 4.63 µM | 0.354 µM | 2.11 µM | 2.3 µM | 5.71 µM | 0.923 µM | 2.48 µM | 2.01 µM | 6.17 µM | 3.16 µM | 12.5 µM | 1.75 µM | 4.41 µM | 1.76 µM | 4.6 µM | 2.17 µM | 5.24 µM | 1.84 µM | 3.57 µM |
| CC(C)c1c(O)ccc2c1CCC1C(C)(C)CCCC21C (centres undefined) | – | 36.5 µM | – | 49.3 µM | – | 33.2 µM | – | 30.8 µM | – | 28.3 µM | – | 31.7 µM | – | 40.1 µM | – | 31.2 µM | – | 38.1 µM | – | 29.9 µM |
| CCN1C(=O)N(c2ccccc2)C2NC(=S)N(/N=C/C=C/c3ccccc3)C21 (centres undefined) | 0.715 µM | > 100 µM | 0.451 µM | > 100 µM | 0.44 µM | > 100 µM | 0.763 µM | > 100 µM | 0.444 µM | > 100 µM | 0.619 µM | > 100 µM | 0.38 µM | > 100 µM | 0.288 µM | > 100 µM | 1.74 µM | > 100 µM | 0.463 µM | > 100 µM |
| COc1cc(/C=C/C(=O)c2c(C)nc3ccccc3c2/C=C/c2ccc(C)cc2)cc(OC)c1OC | 2.14 µM | 5.23 µM | 2.56 µM | 7.87 µM | 1.73 µM | 3.57 µM | 1.99 µM | 4.6 µM | 1.86 µM | 3.66 µM | 2.32 µM | 6.32 µM | 3.09 µM | > 100 µM | 2.48 µM | 7.78 µM | 2.02 µM | 3.91 µM | 1.75 µM | 3.24 µM |
| COc1cc(/C=N/NC(=O)c2cnn3c2NC(c2ccccc2)C3)ccc1Oc1ccccc1 (centres undefined) | 1.66 µM | 5.03 µM | 2.83 µM | 31.4 µM | 1.31 µM | 3.59 µM | 1.33 µM | 7.31 µM | 1.42 µM | 4.84 µM | 2.03 µM | 14.3 µM | 0.868 µM | 10.1 µM | 1.73 µM | 9.59 µM | 1.38 µM | 6.94 µM | 0.734 µM | 3.94 µM |
| Cc1ccc2c(c1)C(C)Cc1c(Cl)ncnc1N2C (centres undefined) | 2.55 µM | 6.84 µM | 3.56 µM | 17.2 µM | 4.43 µM | 67.9 µM | 3.7 µM | > 100 µM | 4.21 µM | 91.9 µM | 2.33 µM | 26.3 µM | 3.2 µM | 13.3 µM | 2.73 µM | 23.1 µM | 0.905 µM | 48.7 µM | 1.86 µM | 3.41 µM |
| COc1ccc(-n2cc(-c3cc(OC)c(OC)c(OC)c3)nc2SCc2ccccc2)cc1OC | > 63.6 µM | > 100 µM | 25.8 µM | > 100 µM | 50 µM | > 100 µM | > 92.9 µM | > 100 µM | > 100 µM | > 100 µM | 57.9 µM | > 100 µM | > 100 µM | > 100 µM | > 100 µM | > 100 µM | > 100 µM | > 100 µM | 15.6 µM | > 100 µM |
| Nc1c([N+](=O)[O-])cc2c3c(cccc13)CC2 | – | > 100 µM | – | > 100 µM | – | > 100 µM | – | > 100 µM | – | > 100 µM | – | > 100 µM | – | > 100 µM | – | > 100 µM | – | > 100 µM | – | > 100 µM |
| CNC(=O)CC1NC(=O)c2csc(n2)-c2ccc(-c3nc(C4=NC(C(=O)N5CCCC5C(N)=O)CO4)cs3)nc2-c2csc(n2)-c2csc(n2)C(C(C)C)NC(=O)CNC(=O)c2csc(n2)C(C(C)C)NC(=O)c2nc1sc2C (centres undefined) | > 25 µM | 2.73 µM and > 25 µM | < 0.001 µM | – | > 25 µM | > 25 µM | > 25 µM | > 25 µM | > 25 µM | > 25 µM | > 25 µM | > 25 µM | > 25 µM | > 25 µM | > 25 µM | > 25 µM | – | > 25 µM | > 25 µM | > 25 µM |
| Cc1cc(=O)[nH]c2cc3c(c4c(n3Cc3ccc(Cl)cc3Cl)CC(C)(C)CC4=O)c(O)c12 | > 100 µM | > 100 µM | > 100 µM | > 100 µM | 62.6 µM | > 100 µM | > 100 µM | > 100 µM | 46.2 µM | > 100 µM | 36.4 µM | > 100 µM | > 100 µM | > 100 µM | > 100 µM | > 100 µM | > 100 µM | > 100 µM | 16.3 µM | 31.8 µM |
| CC(C)COCC(CN(Cc1ccccc1)c1ccccc1)N1CCCC1 (centres undefined) | 1.84 µM | 5.22 µM | 1.91 µM | 5.41 µM | 3.24 µM | 13.3 µM | 4.99 µM | 17 µM | 3.76 µM | 13.6 µM | 2.85 µM | 15.1 µM | 3.54 µM | 15.2 µM | 3.12 µM | 14.4 µM | 3.48 µM | 13.8 µM | 1.65 µM | 3.01 µM |
| CNCCNc1c2c(c(NCCNC)c3[nH]ccc13)C(=O)c1ccccc1C2=O | 0.1 µM | 0.33 µM | 0.051 µM | 0.214 µM | 0.0587 µM | 0.615 µM | 0.0434 µM | 0.306 µM | 0.526 µM | 1.31 µM | 1.33 µM | 4.13 µM | 0.299 µM | 0.804 µM | 1.26 µM | 8.21 µM | 4.18 µM | 11.1 µM | 0.421 µM | 0.901 µM |
| CC(NCCC(=O)N(CCC(=O)N(CCC(=O)N(CCC(=O)N(CCC(=O)N(CCC(=O)N(CCC(=O)N(CCC(=O)N(CCC(=O)N(CCC(=O)O)[C@H](C)c1ccccc1)[C@H](C)c1ccccc1)[C@H](C)c1ccccc1)[C@H](C)c1ccccc1)[C@H](C)c1ccccc1)[C@H](C)c1ccccc1)[C@H](C)c1ccccc1)[C@H](C)c1ccccc1)[C@H](C)c1ccccc1)c1ccccc1 (some centres undefined) | 1.44 µM | 4.39 µM | 1.1 µM | 4.08 µM | 2.82 µM | 11.1 µM | 5.05 µM | > 43.9 µM | 2.34 µM | 12.3 µM | 3.73 µM | > 75 µM | 2.91 µM | > 35 µM | > 75 µM | > 75 µM | 1.5 µM | 3.63 µM | 1.16 µM | 2.36 µM |
